Active and inactive are the calls of the source. The calls are words filed in the database; no cut-off is given here.
Legend:
Beta-secretase 1 [1] = target: T1, Beta-secretase 1 (Homo sapiens, UniProt P56817); assay: Inhibition of BACE1 in human […] cells expressing wild type APP695 assessed as reduction in amyloid beta 42 secretion incubated for 18 hrs by sandwich ELISA; assay type: cell-based, SKNBE2
Beta-secretase 1 [2] = target: T1, Beta-secretase 1; assay: Inhibition of BACE1 (1 to 454 residues) (unknown origin) using APP harboring Swedish Lys-Met/Asn-Leu mutant-derived peptide as substrate by FRET assay
Homo sapiens = species: Homo sapiens; assay: Selectivity index, ratio of IC50 for inhibition of BACE2 (unknown origin) to IC50 for inhibition of BACE1 (1 to 454 residues) (unknown origin)
[3] = Metabolic stability in human liver microsomes assessed as intrinsic clearance; assay type: ADME, Microsome; conditions: read-out: CLH
Beta-secretase 2 = target: T2, Beta-secretase 2 (Homo sapiens, UniProt Q9Y5Z0); assay: Inhibition of BACE2 (unknown origin) using APP harboring Swedish Lys-Met/Asn-Leu mutant-derived peptide as substrate incubated for 2 hrs by FRET assay
T2 sequence (Q9Y5Z0 whole entry): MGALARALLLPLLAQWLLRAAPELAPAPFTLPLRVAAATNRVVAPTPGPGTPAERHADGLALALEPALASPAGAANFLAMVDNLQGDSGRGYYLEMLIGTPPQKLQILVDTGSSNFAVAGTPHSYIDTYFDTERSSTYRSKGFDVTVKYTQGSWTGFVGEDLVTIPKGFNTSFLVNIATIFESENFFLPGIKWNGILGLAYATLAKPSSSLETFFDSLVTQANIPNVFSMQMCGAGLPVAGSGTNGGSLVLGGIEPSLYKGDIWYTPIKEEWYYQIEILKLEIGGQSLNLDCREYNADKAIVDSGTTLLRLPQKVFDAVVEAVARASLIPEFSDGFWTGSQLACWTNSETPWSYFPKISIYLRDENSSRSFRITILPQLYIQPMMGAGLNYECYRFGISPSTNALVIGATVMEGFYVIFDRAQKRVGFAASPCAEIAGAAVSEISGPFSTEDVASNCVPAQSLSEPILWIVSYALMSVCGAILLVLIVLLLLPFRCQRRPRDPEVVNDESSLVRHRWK

[4] = Cyanide reactivity in human liver microsomes; assay type: ADME
[5] = Glutathione reactivity in human liver microsomes; assay type: ADME
Mus musculus = assay: In vivo inhibition of BACE1 in C57BL/6J mouse assessed as reduction in plasma SEZ6L level at 3.5 to 52 mg/kg,/day administered via diet for 21 days; assay type: functional, organism-based; conditions: dose 3.5-52 mg/kg, time 21.0 day

T1 sequence (P56817 whole entry, the tested form may be a part): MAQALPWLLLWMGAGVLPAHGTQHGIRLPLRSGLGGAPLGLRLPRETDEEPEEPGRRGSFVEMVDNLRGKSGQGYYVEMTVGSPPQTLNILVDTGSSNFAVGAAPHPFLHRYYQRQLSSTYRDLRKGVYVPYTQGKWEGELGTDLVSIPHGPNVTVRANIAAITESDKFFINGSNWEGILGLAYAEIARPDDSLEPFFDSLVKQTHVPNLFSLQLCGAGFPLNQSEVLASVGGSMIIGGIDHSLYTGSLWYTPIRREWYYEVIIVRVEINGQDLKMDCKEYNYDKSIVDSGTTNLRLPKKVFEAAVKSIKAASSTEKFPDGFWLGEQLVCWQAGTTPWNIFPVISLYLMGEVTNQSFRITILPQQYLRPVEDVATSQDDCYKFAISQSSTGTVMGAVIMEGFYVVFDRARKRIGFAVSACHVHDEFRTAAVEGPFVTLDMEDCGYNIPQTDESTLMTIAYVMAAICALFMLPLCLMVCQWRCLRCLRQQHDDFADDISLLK

**Q.** With `CC(C)S(=O)(=O)[C@]1(C)CC[C@@](CF)(c2cc(NC(=O)c3cc4c(cn3)OC(F)(F)O4)ccc2F)N=C1N` as the compound, how does the IC50 (Beta-secretase 1 [1]) read?
**A.** The IC50 was 6.8 nM.

**Q.** And the IC50 (Beta-secretase 1 [2])?
**A.** The IC50 was 10 nM.

**Q.** And the Ratio IC50 (Homo sapiens)?
**A.** Its Ratio IC50 is 46.

**Q.** What about the microsomal CLint [3] of the same compound?
**A.** The microsomal CLint was under 7.7 µL/min/mg.

**Q.** And the IC50 (Beta-secretase 2)?
**A.** The IC50 was 468 nM.

**Q.** With `C[C@@]1(S(C)(=O)=O)CC[C@@](CF)(c2cc(NC(=O)c3cc4c(cn3)OCCO4)ccc2F)N=C1N` as the compound, how does the IC50 (Beta-secretase 1 [1]) read?
**A.** Its IC50 is 3 nM.

**Q.** What about the IC50 (Beta-secretase 1 [2]) of the same compound?
**A.** Its IC50 is 2.3 nM.

**Q.** What about the Ratio IC50 (Homo sapiens) of the same compound?
**A.** The Ratio IC50 was 145.

**Q.** What about the Ratio IC50 (Homo sapiens; tested as the 2H-labelled form) of the same compound?
**A.** Its Ratio IC50 is 102.

**Q.** What about the Activity [4] of the same compound?
**A.** The Activity was “Active”.

**Q.** And the Activity [5]?
**A.** The Activity was “Not Active”.

**Q.** And the microsomal CLint [3]?
**A.** The microsomal CLint was 11.3 µL/min/mg.

**Q.** And the IC50 (Beta-secretase 2)?
**A.** Its IC50 is 340 nM.

**Q.** Which IC50 (Beta-secretase 1 [1]) does the source give for `C[C@@]1(S(C)(=O)=O)CC[C@@](CF)(c2cc(NC(=O)c3cc4c(cn3)OCCCO4)ccc2F)N=C1N` here?
**A.** The IC50 was 76 nM.

**Q.** What about the IC50 (Beta-secretase 1 [2]) of the same compound?
**A.** The IC50 was 28 nM.

**Q.** And the Ratio IC50 (Homo sapiens)?
**A.** The Ratio IC50 was 41.

**Q.** And the microsomal CLint [3]?
**A.** Its microsomal CLint is 16.7 µL/min/mg.

**Q.** What about the IC50 (Beta-secretase 2) of the same compound?
**A.** The IC50 was 1150 nM.

**Q.** Which IC50 (Beta-secretase 1 [1]) does the source give for `C[C@@]1(S(C)(=O)=O)CC[C@@](CF)(c2cc(NC(=O)c3ccc(F)cn3)ccc2F)N=C1N` here?
**A.** Its IC50 is 3.3 nM.

**Q.** What about the microsomal CLint [3] of the same compound?
**A.** Its microsomal CLint is under 7.7 µL/min/mg.

**Q.** And the IC50 (Beta-secretase 2)?
**A.** Its IC50 is 3.1 nM.

**Q.** For `C[C@@]1(c2cc(NC(=O)c3ccc(C#N)cn3)ccc2F)C[C@@H](C(F)(F)F)OC(N)=N1`, which inhibition (Mus musculus) is on record?
**A.** The inhibition was “Active”.

**Q.** Which IC50 (Beta-secretase 1 [2]) does the source give for `CCc1cc([C@]2(c3ccc(F)c(-c4cccnc4C(F)F)c3)N=C(N)N(C)C2=O)cc(CC)n1` here?
**A.** The IC50 was 10 nM.

**Q.** And the IC50 (Beta-secretase 2)?
**A.** Its IC50 is 6700 nM.

**Q.** With `C[C@@]1(S(C)(=O)=O)CC[C@@](CF)(c2cc(NC(=O)c3cc4c(cn3)OC(F)(F)O4)ccc2F)N=C1N` as the compound, how does the Ratio IC50 (Homo sapiens) read?
**A.** Its Ratio IC50 is 38.

**Q.** What about the Activity [4] of the same compound?
**A.** Its Activity is “Active”.

**Q.** And the Activity [5]?
**A.** Its Activity is “Not Active”.

**Q.** What about the microsomal CLint [3] of the same compound?
**A.** The microsomal CLint was under 7.7 µL/min/mg.

**Q.** Which Activity [4] does the source give for `[2H]C1([2H])Oc2cnc(C(=O)Nc3ccc(F)c([C@]4(CF)CC[C@@](C)(S(C)(=O)=O)C(N)=N4)c3)cc2OC1([2H])[2H]` here?
**A.** The Activity was “Active”.

**Q.** What about the Activity [5] of the same compound?
**A.** The Activity was “Not Active”.

**Q.** And the microsomal CLint [3]?
**A.** Its microsomal CLint is 7.9 µL/min/mg.

**Q.** Which IC50 (Beta-secretase 1 [2]) does the source give for `C[C@@]1(S(C)(=O)=O)CC[C@@](CF)(c2cc(NC(=O)c3cc4c(cn3)OC(F)(F)CO4)ccc2F)N=C1N` here?
**A.** Its IC50 is 1.4 nM.

**Q.** What about the Ratio IC50 (Homo sapiens) of the same compound?
**A.** The Ratio IC50 was 48.

**Q.** What about the Activity [4] of the same compound?
**A.** Its Activity is “Active”.

**Q.** And the Activity [5]?
**A.** Its Activity is “Not Active”.

**Q.** What about the microsomal CLint [3] of the same compound?
**A.** Its microsomal CLint is under 7.7 µL/min/mg.

**Q.** What does the source list for `COc1cc(C(=O)Nc2ccc(F)c([C@]3(CF)CC[C@@](C)(S(C)(=O)=O)C(N)=N3)c2)ncn1`?
**A.** IC50 (Beta-secretase 1 [1]): 15 nM; IC50 (Beta-secretase 1 [2]): 9.5 nM; Ratio IC50 (Homo sapiens): 19; microsomal CLint [3]: < 7.7 µL/min/mg; IC50 (Beta-secretase 2): 189 nM

**Q.** With `C[C@@]1(S(C)(=O)=O)CC[C@@](CF)(c2cc(NC(=O)c3cnc(OCF)cn3)ccc2F)N=C1N` as the compound, how does the IC50 (Beta-secretase 1 [1]) read?
**A.** Its IC50 is 2.3 nM.

**Q.** What about the IC50 (Beta-secretase 1 [2]) of the same compound?
**A.** Its IC50 is 2 nM.

**Q.** And the IC50 (Beta-secretase 2)?
**A.** The IC50 was 16 nM.

**Q.** Which IC50 (Beta-secretase 1 [1]) does the source give for `C[C@@]1(S(C)(=O)=O)CC[C@@](CF)(c2cc(NC(=O)c3cc4c(cn3)OCO4)ccc2F)N=C1N` here?
**A.** Its IC50 is 11 nM.

**Q.** And the IC50 (Beta-secretase 1 [2])?
**A.** The IC50 was 2.3 nM.

**Q.** And the microsomal CLint [3]?
**A.** The microsomal CLint was 36.4 µL/min/mg.

**Q.** And the IC50 (Beta-secretase 2)?
**A.** Its IC50 is 47 nM.

— ChEMBL document CHEMBL5029164, “JNJ-67569762, A 2-Aminotetrahydropyridine-Based Selective BACE1 Inhibitor Targeting the S3 Pocket: From Discovery to Clinical Candidate” (J Med Chem, 2021)
